{"source": "patent US8241681B2", "about": "“Synergistic mixtures of bisabolol and ginger extract” (Symrise AG, priority 2005, dated 2012)", "test_system": "erythema raised by 24-hour occlusive treatment with SDS (sodium dodecyl sulfate), inside under-arm skin", "assay": "SDS inflammation test (SDS irritation study), reduction in reddening of the skin", "assay_type": "in vivo, human", "settings": "after 3 days", "protocol": "The SDS inflammation test was used as the test model. The study was conducted on the inside under-arm of 20 subjects (9 female, 11 male, age: 24-62 years). The reddening of the skin was recorded with a Minolta-Chromameter CR 300 via the a* value of the La′b′ colour system, which describes the position on the red-green axis. The measurements were taken before and 4-6 hours after raising the erythema by 24-hour occlusive treatment with SDS (sodium dodecyl sulfate). The skin was then treated with the test formulation in question 2 times daily for 3 days. 4-6 h after the last application on day 3, the reddening of the skin was determined and the reduction in reddening was calculated from this.\nFor the study, a defined amount of the active compound combination C according to the invention was incorporated into an O/W emulsion. For comparison purposes, the comparison active compounds A and B were incorporated into separate O/W emulsions.\nExtrapon Ginger (Symrise) comprising 1% of ginger CO2 extract, characterized by 25-33% in total of piquant substances with gingerols, shogaols (<3%) and zingerone (<0.5%) and 38-46% of steam-volatile constituents was employed as comparison active compound A.\nCalculation of the synergy index (SI) value according to Kull for the reduction in reddening in the SDS inflammation test for a mixture of bisabolol and ginger extract after a treatment time of 3 days: […]"}
{"smiles": "CC(C)=CCC[C@](C)(O)[C@@H]1CC=C(C)CC1", "note": "[Formulation with active compound B, -(-Alpha-)-Bisabolol, natural]", "values": [{"measurement": "Reduction in reddening relative to the start conditions (a* value)", "setting": "O/W emulsion applied 2 times daily, 20 subjects, Minolta-Chromameter CR 300, Example 11", "result": 2.42}, {"measurement": "Placebo-corrected reduction in reddening (a* value)", "setting": "reduction in reddening active compound minus reduction in reddening placebo, Example 11", "result": 1.02}]}
